Assay: Hair-restructuring effect by HP-DSC: melting point of permed hair strands after post-treatment with the active
Details: melting point of the hair (DSC, Perkin Elmer DSC-7); permed strands dipped 10 min at 23°C in 1% aqueous solution of the active at pH 3, rinsed 1 min, dried, rested 16 h; comparison without post-treatment 149,8
Description: Strähnen der Fa. Alkinco (0,5g, Code 6634) wurden einer herkömmlichen Dauerwellbehandlungen mit dem Handelsprodukt Poly Lock-Normale Dauerwelle unterzogen. Im Rahmen dieser Dauerwellbehandlung wurden die Fasern in einem ersten Schritt für 40 Minuten bei Raumtemperatur der Reduktionslösung (enthaltend 7,9 Gew.-% Thioglykolsäure) ausgesetzt, mit reinem Wasser gespült und anschließend bei Raumtemperatur für 10 Minuten fixiert (Oxidationslösung, enthaltend 2,6 Gew.-% Wasserstoffperoxid). Nach der oxidativen Behandlung wurden die Fasern gespült und getrocknet.
Die Strähnen wurden jeweils bei einer Temperatur von 23°C 10 Minuten in eine 1% ige wäßrige Lösung der jeweiligen Wirkstoffe bei einem pH - Wert von 3, welcher mit Natronlauge oder Salzsäure eingestellt wurde, getaucht. Anschließend wurde jede Haarsträhne 1 Minute mit klarem Wasser gespült, getrocknet und 16 h ruhen gelassen.
Mittels einer DSC-Analyse (Perkin Elmer DSC-7) wurden die folgenden in Tabelle 1 dargestellten Schmelzpunkte ermittelt. Eine genaue Beschreibung der Methode findet sich beispielsweise in der DE 196 173 95 A1

Substance | Schmelzpunkt in °C
Poly-D/L-Alanin | 151,8 °C
Poly-L-Serin | 151,9 °C

Source: patent EP1339379B1, “NOVEL USE OF PROTEIN HYDROLYSATES” (Henkel Kommanditgesellschaft auf Aktien, priority 2000, dated 2002)
